Reference: EP4682149A1 (Prime Gene Therapeutics Co., Ltd., priority 2023, dated 2024)
In brackets after ≈: the same amount, converted by molar mass.

Experiments:
JAK1/2/3 = assay: Enzymatic activity (IC50) test, Lance Ultra TR-FRET; conditions: JAK1/2/3 kinase platform; kinase not given
[1] = Stability investigation (HPLC purity at 220 nm and XRD); type: physicochemical; conditions: for chemical stability / crystal form change: 40°C/75%RH and 25°C/60%RH for 7 days
Protocol: The analysis method is as follows: Octadecylsilane bonded silica gel was used as the filler (Kromasil C 18 4.6 mm × 250 mm, 5 µm); 0.01 mol/L potassium dihydrogen phosphate solution (pH was adjusted to 3.0 with phosphoric acid) was used as mobile phase A, and methanol was used as mobile phase B. Gradient elution was performed according to the table below; the detection wavelength was 220 nm; the column temperature was 40°C; the flow rate was 1.0 ml/min; the injection volume was 10 µl, and the HPLC purity was calculated by the area normalization method.
Appropriate amounts of Form III, IV, and V were weighed in sample bottles and stored uncovered at 80°C, 40°C/75% RH, and 25°C/60% RH for 7 days. Samples were collected at 0, 1, 3, and 7 days for HPLC and XRD analysis. Table 7 Stability test results of Form III, IV and V

[2] = Competitive slurry test (XRD of the solid); type: physicochemical; conditions: for form transformation in competitive slurry: ethanol/water (1/1) (80°C), acetonitrile (70°C), acetonitrile/water (70°C)
Protocol: The relative stability of Form II and Form III was investigated by competitive slurry test. Approximately 5 mg of Form II and Form III were weighed, mixed, and then added in 1/1 ratio of methanol/n-heptane, ethanol and ethyl acetate, respectively, to prepare a suspension. The suspension was stirred at room temperature for several hours, then centrifuged and the solid was analyzed by XRD.
Competitive slurry studies were conducted to investigate the relative stability of Forms III, IV, and V. 5 mg of Forms III, IV, and V were weighed and mixed uniformly. Suspensions were prepared respectively in ethanol (80°C), ethanol/water (1/1) (80°C), water (60°C), water (25°C), acetonitrile (70°C), and acetonitrile/water (1/1) (70°C). The suspensions were stirred for 12 hours, and the solids were centrifuged and analyzed by XRD. Table 6: Competitive slurry results of Forms III, IV and V

[3] = Pharmacokinetic (PK) determination in adult Beagle dogs; type: in vivo
Protocol: Healthy adult male Beagle dogs were obtained from Beijing Marshall Biotechnology Co., Ltd. Three groups were divided into this study and administered via oral gavage at a dose of 19.5 mg/kg. Animals receiving oral gavage were fasted overnight and from 10 hours before to 4 hours after administration. Blood samples were collected 15 minutes, 30 minutes, 45 minutes, 1 hour, 1.5 hours, 3 hours, 4 hours, 6 hours, 8 hours, and 24 hours after gavage. Blood samples (1 mL) were collected from the forelimb vein or other suitable venous sampling methods and placed in labeled EDTA-K2 anticoagulant tubes. After gentle inversion to thoroughly mix the anticoagulant with the blood, the tubes were immediately placed on wet ice. Plasma was separated by centrifugation within 1 hour of blood collection in the condition of 4°C, 2200g, and 10 minutes. The separated plasma was placed in labeled EP tubes. Plasma samples were immediately stored in an ultra-low temperature freezer until analysis. Plasma samples should be stored in a refrigerator at -70°C before testing. Plasma samples were extracted using protein precipitation, and the extracts were analyzed by LC/MS/MS.

[4] = Solubility determination in buffer solutions (HPLC); type: physicochemical; conditions: for solubility: 37°C
Protocol: Appropriate amounts of Forms III, IV, and V were weighed and added to buffer solutions with pH 4.5 and 6.8 to prepare a suspension at 5 mg/mL. The resulting suspension was stirred at 37°C, and samples were collected and analyzed at 5, 30, 60, and 240 minutes. Use a syringe to draw approximate 1 mL of the suspension, filter it through a membrane filter, and dilute it several times before testing the resulting filtrate with HPLC, using the area normalization method to determine the solubility. Table 8 Tests of different crystal forms at various pH values

[5] = Determination of bioavailability in adult SD rats; type: in vivo; conditions: Sprague-Dawley, rat, plasma, female SD rats
Protocol: Healthy adult female Sprague-Dawley rats were obtained from Beijing Weitong Lihua Laboratory Animal Technology Co., Ltd. The study was conducted in two phases: first, animals received a single intravenous injection of 1 mg/kg; second, one week later, the same group received a single oral gavage of the suspension at a dose of 10 mg/kg. Animals receiving oral gavage were fasted overnight and from 10 hours before to 4 hours after administration. Animals in the intravenous group were not restricted to food. Blood samples were collected at 0.083, 0.25, 0.5, 1, 2, 4, 6, 8, and 24 hours after administration for the intravenous group and at 0.25, 0.5, 1, 2, 4, 8, and 24 hours after administration for the oral group. After isoflurane anesthesia by using a small animal anesthesia machine, 0.4 ml of whole blood was obtained from the retinal venous plexus. The sample was centrifuged at 4000 rpm for 20 minutes at 4°C. Plasma was separated and placed in labeled EP tubes. Plasma samples were immediately stored in an ultra-low temperature freezer until analysis. Plasma samples should be stored in a refrigerator at -70°C before testing. Plasma samples were extracted using protein precipitation, and the extracts were analyzed by LC/MS/MS.

[6] = male Beagle dogs, oral gavage 19.5 mg/kg
[7] = male Beagle dogs, oral gavage 19.5 mg/kg, 19.5 mg/kg

| SMILES | 220nm (HPLC purity) ([1]; 0 days) [%] | 220nm (HPLC purity) ([1]; 25°C/60%RH, 3 days, uncovered) [%] | 220nm (HPLC purity) ([1]; 25°C/60%RH, 7 days, uncovered) [%] | 220nm (HPLC purity) ([1]; 40°C/75%RH, 3 days, uncovered) [%] | 220nm (HPLC purity) ([1]; 40°C/75%RH, 7 days, uncovered) [%] | chemical stability ([1]; 80°C) | crystal form change ([1]; 80°C) | 220nm (HPLC purity) ([1]; 80°C, 1 day, uncovered) [%] | 220nm (HPLC purity) ([1]; 80°C, 3 days, uncovered) [%] | 220nm (HPLC purity) ([1]; 80°C, 7 days, uncovered) [%] | AUC 0-inf [3, 7] [ng·h/mL] | AUC 0-t [3, 7] [ng·h/mL] | C max [3, 7] [ng/mL] | solubility ([4]; PH=4.5 buffer, 5 min) [µg/mL] | solubility ([4]; PH=4.5 buffer, 30 min) [µg/mL] | solubility ([4]; PH=4.5 buffer, 60 min) [µg/mL] | solubility ([4]; PH=4.5 buffer, 240 min) [µg/mL] | solubility ([4]; pH=6.8 buffer, 5 min) [µg/mL] | solubility ([4]; pH=6.8 buffer, 30 min) [µg/mL] | solubility ([4]; pH=6.8 buffer, 60 min) [µg/mL] | also measured |
| --- | --- | --- | --- | --- | --- | --- | --- | --- | --- | --- | --- | --- | --- | --- | --- | --- | --- | --- | --- | --- | --- |
| N#CCC1(n2cc(-c3ncnc4[nH]ccc34)cn2)CN(C2CCN(C(=O)c3ccnc(C(F)(F)F)c3F)CC2)C1 [Itacitinib, reference compound] |  |  |  |  |  |  |  |  |  |  |  |  |  |  |  |  |  |  |  |  | IC50 (JAK1/2/3): < 10 nM |
| N#CCC1(n2cc(-c3ncnc4[nH]ccc34)c(N)n2)CN(C2CCN(C(=O)c3ccnc(C(F)(F)F)c3F)CC2)C1 [listing 1 of 3 here] | 98.02 | 98.10 | 97.87 | 98.02 | 98.01 | relatively stable | did not change | 98.05 | 98.03 | 98.02 | 8431 | 8354 | 2440 | 11.2 (≈ 19.7 µM) | 25.8 (≈ 45.4 µM) | 28.9 (≈ 50.8 µM) | 35.6 (≈ 62.6 µM) | 7.6 (≈ 13.4 µM) | 13.3 (≈ 23.4 µM) | 16 (≈ 28.1 µM) | form transformation in competitive slurry [2]: transformed into Form IV; Tmax [3, 6]: 1.00 h; t 1/2 [3, 7]: 2.86 h; solubility ([4]; pH=6.8 buffer, 240 min): 19 µg/mL (≈ 33.4 µM) |
| N#CCC1(n2cc(-c3ncnc4[nH]ccc34)c(N)n2)CN(C2CCN(C(=O)c3ccnc(C(F)(F)F)c3F)CC2)C1 [listing 2 of 3 here] | 99.83 | 99.90 | 99.95 | 99.89 | 99.90 | relatively stable | did not change | 99.90 | 99.89 | 99.91 | 13248 | 13174 | 4057 | 41.3 (≈ 72.6 µM) | 60.1 (≈ 106 µM) | 65.5 (≈ 115 µM) | 84 (≈ 148 µM) | 11.2 (≈ 19.7 µM) | 29.9 (≈ 52.6 µM) | 33.2 (≈ 58.4 µM) | relative stability of Form II and Form III ([2]; Form II and Form III mixed, methanol/n-heptane 1/1, ethanol, ethyl acetate, room temperature, several hours, XRD): more stable than Form II; form transformation in competitive slurry [2]: transformed into Form IV; Tmax ([3]; dog, plasma, male Beagle dogs, oral gavage 19.5 mg/kg, read-out: Tmax): 1 h; half-life ([3]; male, beagle, dog, plasma, po, 19.5 mg/kg, male Beagle dogs, oral gavage 19.5 mg/kg): 2.45 h; solubility ([4]; pH=6.8 buffer, 240 min): 41.5 µg/mL (≈ 73 µM) |
| N#CCC1(n2cc(-c3ncnc4[nH]ccc34)c(N)n2)CN(C2CCN(C(=O)c3ccnc(C(F)(F)F)c3F)CC2)C1 [listing 3 of 3 here] | 99.57 | 99.59 | 99.63 | 99.53 | 99.63 | relatively stable | did not change | 99.57 | 99.60 | 99.57 | 27789 | 27750 | 6197 | 47.1 (≈ 82.8 µM) | 65.6 (≈ 115 µM) | 70 (≈ 123 µM) | 73.4 (≈ 129 µM) | 24.7 (≈ 43.4 µM) | 37.2 (≈ 65.4 µM) | 40.2 (≈ 70.7 µM) | AUC 0-inf ([5]; IV (1 mg/kg)): 456 ng·h/mL; half-life ([5]; IV (1 mg/kg)): 0.61 h; clearance ([5]; IV (1 mg/kg), read-out: Cl s,app): 37.7 mL/min/kg; Vd ([5]; IV (1 mg/kg), read-out: VZ): 1.5 L/kg; bioavailability ([5]; PO (10 mg/kg) vs IV (1 mg/kg)): 17%; AUC 0-inf ([5]; PO (10 mg/kg), suspension): 783 ng·h/mL; Cmax ([5]; PO (10 mg/kg), suspension): 475 ng/mL; Tmax ([5]; PO (10 mg/kg), suspension): 0.5 h; half-life ([5]; PO (10 mg/kg), suspension): 1.9 h; relative stability of the forms ([2]; conclusion from competitive slurry of Forms III, IV, V): the most stable of the five forms; pharmacokinetic properties after PO administration ([3]; comparison of the crystal forms): better pharmacokinetic properties; Tmax [3, 6]: 1.00 h; t 1/2 [3, 7]: 2.63 h; solubility relative to Form V ([4]; pH = 4.5 (postprandial gastric juice), 240 min): twice that of Form V; solubility relative to Form V ([4]; pH = 6.8 (simulated intestinal fluid), 240 min): twice that of Form V; solubility ([4]; pH=6.8 buffer, 240 min): 40.2 µg/mL (≈ 70.7 µM) |
| N#CCC1(n2cc(-c3ncnc4[nH]ccc34)c(N)n2)CN(C2CCN(Cc3ccnc(C(F)(F)F)c3F)CC2)C1 [compound of formula I (amorphous form), 2-(3-(3-amino-4-(7H-pyrrolo[2,3-d]pyrimidin-4-yl)-1H-pyrazol-1-yl)-1-(1-(3-fluoro-2-(trifluoromethyl)isonicotinyl)piperidin-4-yl)azetidin-3-yl)acetonitrile] |  |  |  |  |  |  |  |  |  |  |  |  |  |  |  |  |  |  |  |  | IC50 (JAK1/2/3): < 10 nM |
